Assay results taken from paper PMC10584170, “Machine learning-based phenotypic imaging to characterise the targetable biology of Plasmodium falciparum male gametocytes for the development of transmission-blocking antimalarials” (PLOS Pathogens, 2023).
pIC50: −log10 of the molar value. Like-named read-outs stand apart in the source and are kept apart here. Each block holds one molecule with its values, some of them ahead of it.

Columns and labels:
[1] = test system: P. falciparum male gametocytes; assay: P. falciparum Dual Gamete Formation Assay (PfDGFA), male readout (exflagellation); type: cell-based, Plasmodium falciparum NF54; settings: for Selectivity Ratio M: HepG2 Tox50 versus male IC50; for pIC50: read-out: Male IC50; for HitlevelM: number of replicates with >50% inhibition in the male readout
Method in brief: (§1)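 Male and female gamete formation were quantified by microscopy image analysis following 24 h incubation of mature NF54 gametocytes with compound and activation at 28°C with xanthurenic acid.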

[2] = test system: P. falciparum female gametocytes; assay: P. falciparum Dual Gamete Formation Assay (PfDGFA), female readout (Pfs25-positive female gametes); type: cell-based, Plasmodium falciparum NF54; settings: for Selectivity ratio F: HepG2 Tox50 versus female IC50; for pIC50: read-out: Female IC50; for HitlevelF: number of replicates with >50% inhibition in the female readout
Method in brief: as §1

[3] = test system: HepG2 cells; assay: HepG2 cytotoxicity counter-screen; settings: cytotoxic activity against HepG2 cells
[4] = 2µM, 24h preincubation with gametocytes, average of replicates
[5] = 2µM, 24h preincubation with gametocytes, replicate R1
[6] = 2µM, 24h preincubation with gametocytes, replicate R3
[7] = 2µM, 24h preincubation with gametocytes, replicate R4
[8] = PfDGFA, 24 h incubation with gametocytes before induction, exflagellation readout
[9] = PfDGFA, 24 h incubation with gametocytes before induction, female gamete readout
[10] = PfDGFA at 2µM, 24h preincubation with gametocytes, average of replicates
[11] = PfDGFA at 2µM, 24h preincubation with gametocytes, replicate R1
[12] = PfDGFA at 2µM, 24h preincubation with gametocytes, replicate R3
[13] = PfDGFA at 2µM, 24h preincubation with gametocytes, replicate R4

SMILES: CCOc1c(CCNCCCCNCCc2ccc3ccccc3c2OCC)ccc2ccccc12.CS(=O)(=O)O [TCMDC-137759]
Average inhibition male (%) [1, 4]: 92.2% | % inhibition male (individual replicates) R1 [1, 5]: 95.9% | % inhibition male (individual replicates) R3 [1, 6]: 97.8% | % inhibition male (individual replicates) R4 [1, 7]: 100.2% | Selectivity Ratio M [1]: 2.62 | pIC50 [1, 8]: 5.88 | Average inhibition female (%) [2, 4]: 82.4% | % inhibition female (individual replicates) R1 [2, 5]: 86.3% | % inhibition female (individual replicates) R3 [2, 6]: 88.2% | % inhibition female (individual replicates) R4 [2, 7]: 86.8% | Selectivity ratio F [2]: 1.48 | pIC50 [2, 9]: 5.63 | Tox50 [3]: 3.44 µM

SMILES: CS(=O)(=O)O.CSc1ccc2ccccc2c1CCNCCCCNCCc1c(SC)ccc2ccccc12 [TCMDC-137763]
Average inhibition male (%) [1, 4]: 90.7% | % inhibition male (individual replicates) R1 [1, 5]: 94.6% | % inhibition male (individual replicates) R3 [1, 6]: 73.0% | % inhibition male (individual replicates) R4 [1, 7]: 98.9% | Selectivity Ratio M [1]: 2.67 | pIC50 [1, 8]: 5.85 | Average inhibition female (%) [2, 4]: 55.5% | % inhibition female (individual replicates) R1 [2, 5]: 47.6% | % inhibition female (individual replicates) R3 [2, 6]: 28.5% | % inhibition female (individual replicates) R4 [2, 7]: 71.9% | Selectivity ratio F [2]: 1.79 | pIC50 [2, 9]: 5.68 | Tox50 [3]: 3.73 µM

SMILES: CCC1=C[C@@H]2CN(C1)Cc1c([nH]c3ccccc13)[C@@](C(=O)OC)(c1cc3c(cc1OC)N(C)[C@H]1[C@@](O)(C(=O)OC)[C@H](O)[C@]4(CC)C=CCN5CC[C@]31[C@@H]54)C2.O=S(=O)(O)O [TCMDC-137769]
Selectivity Ratio M [1]: 5697.96 | pIC50 ([1]; Plasmodium falciparum, 24 h): 8.00 | inhibition at 2 µM ([1]; Plasmodium falciparum, read-out: % inhibition male (individual replicates) R1): 101% | inhibition at 2 µM ([1]; Plasmodium falciparum, read-out: % inhibition male (individual replicates) R2): 99.3% | inhibition at 2 µM ([1]; Plasmodium falciparum, read-out: % inhibition male (individual replicates) R4): 103% | inhibition at 2 µM ([1]; Plasmodium falciparum, read-out: Average inhibition male (%)): 101% | Selectivity ratio F [2]: 5.57 | pIC50 ([2]; Plasmodium falciparum, 24 h): < 5.00 | inhibition at 2 µM ([2]; Plasmodium falciparum, read-out: % inhibition female (individual replicates) R1): 4.8% | inhibition at 2 µM ([2]; Plasmodium falciparum, read-out: % inhibition female (individual replicates) R2): -7.3% | inhibition at 2 µM ([2]; Plasmodium falciparum, read-out: % inhibition female (individual replicates) R3): 2.7% | inhibition at 2 µM ([2]; Plasmodium falciparum, read-out: % inhibition female (individual replicates) R4): 9.5% | inhibition at 2 µM ([2]; Plasmodium falciparum, read-out: Average inhibition female (%)): 2.4% | Tox50 [3]: 55.68 µM

pIC50 [1, 8]: 6.96 | pIC50 [2, 9]: 6.01
SMILES: CC(=NNC(=S)NC(C)(C)C)c1ccccn1 [TCMDC-137783]
Average inhibition male (%) [1, 4]: 101.1% | % inhibition male (individual replicates) R1 [1, 5]: 99.9% | % inhibition male (individual replicates) R3 [1, 6]: 98.6% | % inhibition male (individual replicates) R4 [1, 7]: 104.2% | Selectivity Ratio M [1]: 0.9 | Average inhibition female (%) [2, 4]: 58.4% | % inhibition female (individual replicates) R1 [2, 5]: 41.7% | % inhibition female (individual replicates) R3 [2, 6]: 38.4% | % inhibition female (individual replicates) R4 [2, 7]: 72.1% | Selectivity ratio F [2]: 0.11 | Tox50 [3]: 0.1 µM

SMILES: COc1ccc2ccc(OC)c(CNCCCCCCNCc3c(OC)ccc4ccc(OC)cc34)c2c1.CS(=O)(=O)O [TCMDC-137796]
Average inhibition male (%) [1, 4]: 93.5% | % inhibition male (individual replicates) R1 [1, 5]: 89.3% | % inhibition male (individual replicates) R3 [1, 6]: 82.0% | % inhibition male (individual replicates) R4 [1, 7]: 102.2% | Selectivity Ratio M [1]: 2.84 | pIC50 [1, 8]: 5.84 | Average inhibition female (%) [2, 4]: 38.4% | % inhibition female (individual replicates) R1 [2, 5]: 29.7% | % inhibition female (individual replicates) R3 [2, 6]: 9.8% | % inhibition female (individual replicates) R4 [2, 7]: 40.9% | Selectivity ratio F [2]: 1.12 | pIC50 [2, 9]: 5.44 | Tox50 [3]: 4.07 µM

pIC50 ([1]; Plasmodium falciparum, PfDGFA, 24 h incubation with gametocytes before induction, exflagellation readout): 5.95 | pIC50 ([2]; Plasmodium falciparum, PfDGFA, 24 h incubation with gametocytes before induction, female gamete readout): < 5.00
SMILES: Br.c1cc(C2=NC3CCCCC3N2)ccc1OCCCOc1ccc(C2=NC3CCCCC3N2)cc1 (centres unmarked) [TCMDC-137803]
Selectivity Ratio M [1]: 32.57 | inhibition at 2 µM ([1]; Plasmodium falciparum, 2µM, 24h preincubation with gametocytes, average of replicates, read-out: Average inhibition male (%)): 96.1% | inhibition at 2 µM ([1]; Plasmodium falciparum, 2µM, 24h preincubation with gametocytes, replicate R1, read-out: % inhibition male (individual replicates) R1): 93.1% | inhibition at 2 µM ([1]; Plasmodium falciparum, 2µM, 24h preincubation with gametocytes, replicate R2, read-out: % inhibition male (individual replicates) R2): 96.3% | inhibition at 2 µM ([1]; Plasmodium falciparum, 2µM, 24h preincubation with gametocytes, replicate R3, read-out: % inhibition male (individual replicates) R3): 92.1% | inhibition at 2 µM ([1]; Plasmodium falciparum, 2µM, 24h preincubation with gametocytes, replicate R4, read-out: % inhibition male (individual replicates) R4): 103% | Selectivity ratio F [2]: 3.68 | inhibition at 2 µM ([2]; Plasmodium falciparum, 2µM, 24h preincubation with gametocytes, average of replicates, read-out: Average inhibition female (%)): 39.4% | inhibition at 2 µM ([2]; Plasmodium falciparum, 2µM, 24h preincubation with gametocytes, replicate R1, read-out: % inhibition female (individual replicates) R1): 33.6% | inhibition at 2 µM ([2]; Plasmodium falciparum, 2µM, 24h preincubation with gametocytes, replicate R2, read-out: % inhibition female (individual replicates) R2): 49.2% | inhibition at 2 µM ([2]; Plasmodium falciparum, 2µM, 24h preincubation with gametocytes, replicate R3, read-out: % inhibition female (individual replicates) R3): 5.9% | inhibition at 2 µM ([2]; Plasmodium falciparum, 2µM, 24h preincubation with gametocytes, replicate R4, read-out: % inhibition female (individual replicates) R4): 68.9% | Tox50 [3]: 36.78 µM

pIC50 [1, 8]: 6.12 | pIC50 [2, 9]: 6.08
SMILES: Nc1nc(N)c2c(ccc3c2ccn3Cc2ccc3c(c2)OCO3)n1 [TCMDC-137808]
Selectivity Ratio M [1]: 0.19 | Average inhibition male (%) [1, 10]: 70.0% | % inhibition male (individual replicates) R1 [1, 11]: 66.3% | % inhibition male (individual replicates) R3 [1, 12]: 77.8% | % inhibition male (individual replicates) R4 [1, 13]: 76.3% | HitlevelM ([1]; 2µM): 4 | Selectivity ratio F [2]: 0.18 | Average inhibition female (%) [2, 10]: 83.7% | % inhibition female (individual replicates) R1 [2, 11]: 77.5% | % inhibition female (individual replicates) R3 [2, 12]: 80.4% | % inhibition female (individual replicates) R4 [2, 13]: 88.7% | HitlevelF ([2]; 2µM): 4 | Tox50 [3]: 0.15 µM

pIC50 [1, 8]: 6.33 | pIC50 [2, 9]: 5.99
SMILES: Nc1nc(N)c2c(ccc3c2ccn3Cc2ccc(-c3ccccc3)cc2)n1 [TCMDC-137813]
Selectivity Ratio M [1]: 0.97 | Average inhibition male (%) [1, 10]: 70.1% | % inhibition male (individual replicates) R1 [1, 11]: 91.2% | % inhibition male (individual replicates) R3 [1, 12]: 64.2% | % inhibition male (individual replicates) R4 [1, 13]: 76.3% | HitlevelM ([1]; 2µM): 3 | Selectivity ratio F [2]: 0.44 | Average inhibition female (%) [2, 10]: 90.5% | % inhibition female (individual replicates) R1 [2, 11]: 93.6% | % inhibition female (individual replicates) R3 [2, 12]: 92.9% | % inhibition female (individual replicates) R4 [2, 13]: 90.8% | HitlevelF ([2]; 2µM): 4 | Tox50 [3]: 0.46 µM

pIC50 [1, 8]: 5.73 | pIC50 [2, 9]: 5.54
SMILES: C#CCCOc1ccc2ccccc2c1CNCCCCCCNCc1c(OCCC#C)ccc2ccccc12 [TCMDC-137832]
Selectivity Ratio M [1]: 2.13 | Average inhibition male (%) [1, 10]: 78.9% | % inhibition male (individual replicates) R1 [1, 11]: 82.1% | % inhibition male (individual replicates) R3 [1, 12]: 58.7% | % inhibition male (individual replicates) R4 [1, 13]: 86.2% | HitlevelM ([1]; 2µM): 4 | Selectivity ratio F [2]: 1.37 | Average inhibition female (%) [2, 10]: 22.9% | % inhibition female (individual replicates) R1 [2, 11]: 24.2% | % inhibition female (individual replicates) R3 [2, 12]: 11.7% | % inhibition female (individual replicates) R4 [2, 13]: 20.0% | HitlevelF ([2]; 2µM): 0 | Tox50 [3]: 3.94 µM

SMILES: CS(=O)(=O)O.FC(F)(F)COc1c(CNCCCCCCNCc2ccc3ccccc3c2OCC(F)(F)F)ccc2ccccc12 [TCMDC-137833]
Selectivity Ratio M [1]: 1.9 | Average inhibition male (%) [1, 10]: 69.2% | % inhibition male (individual replicates) R1 [1, 11]: 70.5% | % inhibition male (individual replicates) R3 [1, 12]: 47.4% | % inhibition male (individual replicates) R4 [1, 13]: 77.6% | pIC50 [1, 8]: 5.76 | HitlevelM ([1]; 2µM): 3 | Selectivity ratio F [2]: 0.51 | Average inhibition female (%) [2, 10]: 29.5% | % inhibition female (individual replicates) R1 [2, 11]: 27.4% | % inhibition female (individual replicates) R3 [2, 12]: 10.4% | % inhibition female (individual replicates) R4 [2, 13]: 40.2% | pIC50 [2, 9]: 5.18 | HitlevelF ([2]; 2µM): 0 | Tox50 [3]: 3.32 µM

SMILES: CS(=O)(=O)O.c1ccc2c(CNCCCCCCNCc3c(OCC4CC4)ccc4ccccc34)c(OCC3CC3)ccc2c1 [TCMDC-137839]
Average inhibition male (%) [1, 4]: 95.2% | % inhibition male (individual replicates) R1 [1, 5]: 96.4% | % inhibition male (individual replicates) R3 [1, 6]: 98.9% | % inhibition male (individual replicates) R4 [1, 7]: 103.0% | Selectivity Ratio M [1]: 2.29 | pIC50 [1, 8]: 5.85 | Average inhibition female (%) [2, 4]: 78.7% | % inhibition female (individual replicates) R1 [2, 5]: 59.7% | % inhibition female (individual replicates) R3 [2, 6]: 91.2% | % inhibition female (individual replicates) R4 [2, 7]: 88.3% | Selectivity ratio F [2]: 1.36 | pIC50 [2, 9]: 5.63 | Tox50 [3]: 3.2 µM

pIC50 [1, 8]: 5.99 | pIC50 [2, 9]: 5.63
SMILES: Nc1nc(N)c2c(ccc3[nH]c(-c4ccccc4Cl)nc32)n1 [TCMDC-137840]
Average inhibition male (%) [1, 4]: 99.1% | % inhibition male (individual replicates) R1 [1, 5]: 101.1% | % inhibition male (individual replicates) R3 [1, 6]: 94.6% | % inhibition male (individual replicates) R4 [1, 7]: 101.3% | Selectivity Ratio M [1]: 2.01 | Average inhibition female (%) [2, 4]: 54.2% | % inhibition female (individual replicates) R1 [2, 5]: 66.8% | % inhibition female (individual replicates) R3 [2, 6]: 50.3% | % inhibition female (individual replicates) R4 [2, 7]: 52.5% | Selectivity ratio F [2]: 0.88 | Tox50 [3]: 2.04 µM
